Source: patent US9006415B2, “Targeted delivery of nucleic acids” (Massachusetts Institute of Technology, priority 2010, dated 2015)

Columns and labels:
HeLa cells = experiment: Inhibition of endocytosis (uptake and GFP knockdown with small molecule inhibitors); format: cell-based, human; details: HeLa cells pre-incubated with inhibitor 1 h
Experimental: HeLa cells grown in 96-well plates at ˜70% confluence were incubated with small molecule inhibitors for 1 h at 37° C., followed by incubation with tetramethylrhodamine-labeled TP-LyP1 (3 μM) or TPNs containing both labeled peptide (3 μM) and GFP siRNA (100 nM) for an additional hour at 37° C. The cells were washed three times with cold PBS and were subsequently either imaged with a CCD camera mounted on a Nikon TE200 inverted epifluorescence microscope (for peptide-only), or trypsinized for flow cytometry analysis by the BD-LSR II system to assess GFP expression (for incubations with nanocomplexes).
To identify the mechanism by which tandem peptides enter cells, these experiments were repeated in the presence of a variety of endocytosis inhibitors [Veldhoen, S., Laufer, S. D., Trampe, A. & Restle, T. Cellular delivery of small interfering RNA by a non-covalently attached cell-penetrating peptide: quantitative analysis of uptake and biological effect. Nucleic Acids Res 34, 6561-6573, (2006)]. […] Thus, tandem peptides are taken up by cells mainly via macropinocytosis and lipid-raft.

p32 receptor = target: T1, p32 receptor (Homo sapiens, UniProt Q07021); experiment: Competition of GFP silencing with free LyP-1 peptide; format: cell-based; details: nanocomplexes on HeLa cells
T1 construct: incubated over Hela cells, which express p32 on the cell surface; endogenous in cells; host or cells: HeLa (stably expressing dGFP)
T1 sequence (Q07021 74-282): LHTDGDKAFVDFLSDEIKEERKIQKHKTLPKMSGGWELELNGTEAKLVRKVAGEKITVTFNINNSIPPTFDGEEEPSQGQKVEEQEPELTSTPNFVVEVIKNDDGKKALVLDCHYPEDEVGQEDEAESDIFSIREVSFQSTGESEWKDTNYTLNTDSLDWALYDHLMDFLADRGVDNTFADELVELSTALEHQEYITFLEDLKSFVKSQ
Experimental: For the initial screen, HeLa cells stably expressing destabilized GFP were cultured in 96-well plates to ˜70-80% confluence. siRNA (0-100 nM) was incubated with 20-fold molar excess of tetramethylrhodamine-labelled tandem peptides in PBS for 10-15 min at room temperature, then incubated over cells in DMEM for 4 h at 37° C., after which the medium was replaced. The complexes were then added to HeLa cell cultures and incubated for 4 h at 37° C., after which the medium was replaced with 100 μL of fresh medium with 10% serum. […] For competition experiments with free LyP-1 peptide, cells were pre-incubated with unlabeled LyP-1 peptide or ARAL control peptide at specified concentrations for 1 h at 37° C. before treatment with peptide/siRNA complexes.

tumor parenchyma = experiment: Tumor penetration with iRGD in place of Lyp-1; format: in vivo; details: data not shown

effect of control peptide on GFP silencing (p32 receptor)	Molecule	GFP knockdown in presence of inhibitor (HeLa cells)	cell binding of tandem peptide in presence of inhibitor (HeLa cells)	tumor penetration (tumor parenchyma)
	OCC1OC(O)CC(O)C1O (stereo not drawn) [Deoxyglucose]	inhibited GFP knockdown		
	CCCCCCCCCC(=O)NC(CN1CCOCC1)C(O)c1ccccc1 (stereo not drawn) [PDMP]	significantly decreased	significantly decreased	
	N=C(N)NC(=O)c1nc(Cl)c(N)nc1N [amiloride]	significantly decreased	significantly decreased	
	OC[C@H]1O[C@@H]2O[C@H]3[C@H](O)[C@@H](O)[C@@H](O[C@H]4[C@H](O)[C@@H](O)[C@@H](O[C@H]5[C@H](O)[C@@H](O)[C@@H](O[C@H]6[C@H](O)[C@@H](O)[C@@H](O[C@H]7[C@H](O)[C@@H](O)[C@@H](O[C@H]8[C@H](O)[C@@H](O)[C@@H](O[C@H]1[C@H](O)[C@H]2O)O[C@@H]8CO)O[C@@H]7CO)O[C@@H]6CO)O[C@@H]5CO)O[C@@H]4CO)O[C@@H]3CO [β-cyclodextrin]	significantly decreased	significantly decreased	
no effect	ARALPSQRSR [control peptide]			
	CRGDKGPDC [iRGD]			penetrate tumor parenchyma in a to time-dependent manner
